Among the data in patent publication US10081624B2, “Heterocyclic compound” (Takeda Pharmaceutical Company Limited, priority 2014, dated 2018) are inhibition values, retold here.

For this test, the target named is T1, HDAC6 enzyme (Homo sapiens, UniProt Q9UBN7).
T1 construct: prepared by transducing full length HDAC1 and HDAC6 genes into Sf-9 insect cells; GST; purchased SignalChem; host or cells: Sf-9 insect cells
T1 sequence (Q9UBN7 1-1215): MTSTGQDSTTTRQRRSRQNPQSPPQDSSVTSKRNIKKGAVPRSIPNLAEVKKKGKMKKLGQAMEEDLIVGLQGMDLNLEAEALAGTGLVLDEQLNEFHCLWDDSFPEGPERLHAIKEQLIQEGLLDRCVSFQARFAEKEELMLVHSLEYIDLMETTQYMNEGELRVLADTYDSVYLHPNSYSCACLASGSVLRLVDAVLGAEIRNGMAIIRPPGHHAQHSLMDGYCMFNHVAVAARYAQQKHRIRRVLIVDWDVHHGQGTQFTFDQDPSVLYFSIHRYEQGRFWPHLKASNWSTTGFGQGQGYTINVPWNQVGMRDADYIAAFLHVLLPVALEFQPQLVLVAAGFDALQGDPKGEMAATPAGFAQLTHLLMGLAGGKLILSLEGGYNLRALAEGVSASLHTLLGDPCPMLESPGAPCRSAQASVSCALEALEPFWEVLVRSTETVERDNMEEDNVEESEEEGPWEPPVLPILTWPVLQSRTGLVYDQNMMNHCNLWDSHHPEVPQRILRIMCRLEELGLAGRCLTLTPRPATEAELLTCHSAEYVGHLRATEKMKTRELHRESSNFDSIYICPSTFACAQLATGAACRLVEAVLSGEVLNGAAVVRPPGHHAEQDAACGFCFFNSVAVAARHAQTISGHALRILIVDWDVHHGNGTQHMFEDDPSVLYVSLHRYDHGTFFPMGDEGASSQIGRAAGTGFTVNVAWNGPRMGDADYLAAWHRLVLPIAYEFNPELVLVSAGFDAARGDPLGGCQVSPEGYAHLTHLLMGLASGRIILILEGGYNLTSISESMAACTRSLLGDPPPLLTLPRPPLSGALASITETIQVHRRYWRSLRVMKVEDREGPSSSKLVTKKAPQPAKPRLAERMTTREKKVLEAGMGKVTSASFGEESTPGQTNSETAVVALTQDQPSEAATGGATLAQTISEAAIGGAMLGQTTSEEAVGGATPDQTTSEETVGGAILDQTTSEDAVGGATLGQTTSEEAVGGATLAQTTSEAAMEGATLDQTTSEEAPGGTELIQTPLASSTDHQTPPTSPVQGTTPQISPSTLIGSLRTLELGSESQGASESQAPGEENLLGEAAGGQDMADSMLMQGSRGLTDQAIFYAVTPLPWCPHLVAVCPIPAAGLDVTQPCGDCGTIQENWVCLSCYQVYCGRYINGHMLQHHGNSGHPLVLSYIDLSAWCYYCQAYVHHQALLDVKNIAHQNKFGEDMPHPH
In words: HDAC6 enzyme inhibitory assay (HDAC-Glo I/II Assay kit). In kind it is biochemical. Particulars: 1 μM test compound; read-out: HDAC6 inhibitory rate (%) (1 μM). The protocol: HDAC1 enzyme and HDAC6 enzyme each prepared by transducing full length HDAC1 and HDAC6 genes into Sf-9 insect cells and purifying by GST affinity column were purchased from SignalChem. Using these enzymes, HDAC1 and/or HDAC6 enzyme inhibitory activities of the compound of the present invention were evaluated. Enzymes were used after preserved at −70° C. HDAC1 or HDAC6 enzyme inhibitory activity of the compound of the present invention was measured using HDAC-Glo™ I/II Assay kit (Promega) according to the following experimental method. The test compound diluted with assay buffer (24 mM Tris-HCl (pH 7.5), 1 mM MgCl2, 0.35 mM KCl, 135 mM NaCl, 0.6 mM Glutathione, 0.01% Tween-20) was added to a 384-well plate by each 2 μL. Then, HDAC1 or HDAC6 enzyme solution diluted with assay buffer was added thereto by each 4 μL, and the plate was incubated at room temperature for 60 min. After incubated, HDAC substrate-Developer solution prepared according to Promega protocol attached to the assay kit was added to the 384-well plate by each 2 μL, and the enzyme reaction was started. After reacting at room temperature for 20 min, luminescence level was measured using plate reader Envision (PerkinElmer). The inhibitory activity of each compound was calculated as a relative activity value when luminescence level in wells without enzyme is considered as 100% inhibition.
On to `O=C(NC[C@H]1COCCN1C(=O)C1CCCO1)c1ccc(-c2noc(C(F)(F)F)n2)cc1` (stereo partly drawn) [Example 78, N-(((3S)-4-(tetrahydrofuran-2-ylcarbonyl)morpholin-3-yl)methyl)-4-(5-(trifluoromethyl)-1,2,4-oxadiazol-3-yl)benzamide], for which the inhibition at 1 µM was 88%. Under `O=C(NC[C@H]1COCCN1C(=O)C1CCOC1)c1ccc(-c2noc(C(F)(F)F)n2)cc1` (stereo partly drawn) [Example 79, N-(((3S)-4-(tetrahydrofuran-3-ylcarbonyl)morpholin-3-yl)methyl)-4-(5-(trifluoromethyl)-1,2,4-oxadiazol-3-yl)benzamide] stands 94%; under `O=C(NC[C@H]1COCCN1C(=O)C1CCOCC1)c1ccc(-c2noc(C(F)(F)F)n2)cc1` [Example 81, N-(((3S)-4-(tetrahydro-2H-pyran-4-ylcarbonyl)morpholin-3-yl)methyl)-4-(5-(trifluoromethyl)-1,2,4-oxadiazol-3-yl)benzamide], 94%.

`Cc1cc(C(=O)N2CCOC[C@H]2CNC(=O)c2ccc(-c3noc(C(F)(F)F)n3)cc2)cc(O)n1` [Example 122, N-(((3R)-4-(2-hydroxy-6-methylisonicotinoyl)morpholin-3-yl)methyl)-4-(5-(trifluoromethyl)-1,2,4-oxadiazol-3-yl)benzamide]: the inhibition at 1 µM was determined as 36%. For `O=C(NC[C@@H]1COCCN1C(=O)c1ccc(OCC(F)(F)F)nc1)c1ccc(-c2noc(C(F)(F)F)n2)cc1` [Example 123, N-(((3R)-4-((6-(2,2,2-trifluoroethoxy)pyridin-3-yl)carbonyl)morpholin-3-yl)methyl)-4-(5-(trifluoromethyl)-1,2,4-oxadiazol-3-yl)benzamide], the inhibition at 1 µM is 95%. Then `O=C(NC[C@@H]1COCCN1C(=O)C1CCc2ccccc2O1)c1ccc(-c2noc(C(F)(F)F)n2)cc1` (stereo partly drawn) [Example 124, N-(((3R)-4-(3,4-dihydro-2H-chromen-2-ylcarbonyl)morpholin-3-yl)methyl)-4-(5-(trifluoromethyl)-1,2,4-oxadiazol-3-yl)benzamide], with 90%; and `O=C(NC[C@@H]1COCCN1C(=O)c1cc2ncccn2n1)c1ccc(-c2noc(C(F)(F)F)n2)cc1` [Example 126, N-(((3R)-4-(pyrazolo[1,5-a]pyrimidin-2-ylcarbonyl)morpholin-3-yl)methyl)-4-(5-(trifluoromethyl)-1,2,4-oxadiazol-3-yl)benzamide], with 88%. Consider `N#CC1(C(=O)N2CCOC[C@H]2CNC(=O)c2ccc(-c3noc(C(F)(F)F)n3)cc2)CC1` [Example 127, N-(((3R)-4-((1-cyanocyclopropyl)carbonyl)morpholin-3-yl)methyl)-4-(5-(trifluoromethyl)-1,2,4-oxadiazol-3-yl)benzamide], for which the inhibition at 1 µM was 90%. As for `O=C(NC[C@@H]1COCCN1C(=O)C(c1ccccc1)c1ccccc1)c1ccc(-c2noc(C(F)(F)F)n2)cc1` [Example 129, N-(((3R)-4-(diphenylacetyl)morpholin-3-yl)methyl)-4-(5-(trifluoromethyl)-1,2,4-oxadiazol-3-yl)benzamide], the inhibition at 1 µM was found to be 53%. Under `O=C(NC[C@@H]1COCCN1C(=O)COc1ccccc1)c1ccc(-c2noc(C(F)(F)F)n2)cc1` [Example 130, N-(((3R)-4-(phenoxyacetyl)morpholin-3-yl)methyl)-4-(5-(trifluoromethyl)-1,2,4-oxadiazol-3-yl)benzamide] stands 94%; under `Cc1oncc1C(=O)N1CCOC[C@H]1CNC(=O)c1ccc(-c2noc(C(F)(F)F)n2)cc1` [Example 131, N-(((3R)-4-((5-methyl-1,2-oxazol-4-yl)carbonyl)morpholin-3-yl)methyl)-4-(5-(trifluoromethyl)-1,2,4-oxadiazol-3-yl)benzamide], 87%. Under `Cc1cc(C(=O)N2CCOC[C@H]2CNC(=O)c2ccc(-c3noc(C(F)(F)F)n3)cc2)n(C)n1` [Example 135, N-(((3R)-4-((1,3-dimethyl-1H-pyrazol-5-yl)carbonyl)morpholin-3-yl)methyl)-4-(5-(trifluoromethyl)-1,2,4-oxadiazol-3-yl)benzamide] stands 91%; under `Cn1nc(C(F)(F)F)cc1C(=O)N1CCOC[C@H]1CNC(=O)c1ccc(-c2noc(C(F)(F)F)n2)cc1` [Example 136, N-(((3R)-4-((1-methyl-3-(trifluoromethyl)-1H-pyrazol-5-yl)carbonyl)morpholin-3-yl)methyl)-4-(5-(trifluoromethyl)-1,2,4-oxadiazol-3-yl)benzamide], 92%. Then `Cn1ccc(C(=O)N2CCOC[C@H]2CNC(=O)c2ccc(-c3noc(C(F)(F)F)n3)cc2)n1` [Example 137, N-(((3R)-4-((1-methyl-1H-pyrazol-3-yl)carbonyl)morpholin-3-yl)methyl)-4-(5-(trifluoromethyl)-1,2,4-oxadiazol-3-yl)benzamide], with 93%. With `Cn1cc(C(=O)N2CCOC[C@H]2CNC(=O)c2ccc(-c3noc(C(F)(F)F)n3)cc2)cn1` [Example 138, N-(((3R)-4-((1-methyl-1H-pyrazol-4-yl)carbonyl)morpholin-3-yl)methyl)-4-(5-(trifluoromethyl)-1,2,4-oxadiazol-3-yl)benzamide], the inhibition at 1 µM was found to be 85%. Then `Cc1nn(C)c(C)c1C(=O)N1CCOC[C@H]1CNC(=O)c1ccc(-c2noc(C(F)(F)F)n2)cc1` [Example 139, 4-(5-(trifluoromethyl)-1,2,4-oxadiazol-3-yl)-N-(((3R)-4-((1,3,5-trimethyl-1H-pyrazol-4-yl)carbonyl)morpholin-3-yl)methyl)benzamide], with 63%; and `Cc1nnsc1C(=O)N1CCOC[C@H]1CNC(=O)c1ccc(-c2noc(C(F)(F)F)n2)cc1` [Example 140, N-(((3R)-4-((4-methyl-1,2,3-thiadiazol-5-yl)carbonyl)morpholin-3-yl)methyl)-4-(5-(trifluoromethyl)-1,2,4-oxadiazol-3-yl)benzamide], with 92%; and `Cc1ncsc1C(=O)N1CCOC[C@H]1CNC(=O)c1ccc(-c2noc(C(F)(F)F)n2)cc1` [Example 141, N-(((3R)-4-((4-methyl-1,3-thiazol-5-yl)carbonyl)morpholin-3-yl)methyl)-4-(5-(trifluoromethyl)-1,2,4-oxadiazol-3-yl)benzamide], with 89%. Under `O=C(NC[C@@H]1COCCN1C(=O)c1cc[nH]n1)c1ccc(-c2noc(C(F)(F)F)n2)cc1` [Example 143, N-(((3R)-4-(1H-pyrazol-3-ylcarbonyl)morpholin-3-yl)methyl)-4-(5-(trifluoromethyl)-1,2,4-oxadiazol-3-yl)benzamide] stands 93%. Under `Cc1ccsc1C(=O)N1CCOC[C@H]1CNC(=O)c1ccc(-c2noc(C(F)(F)F)n2)cc1` [Example 146, N-(((3R)-4-((3-methyl-2-thienyl)carbonyl)morpholin-3-yl)methyl)-4-(5-(trifluoromethyl)-1,2,4-oxadiazol-3-yl)benzamide] stands 94%. As for `O=C(NC[C@@H]1COCCN1C(=O)C1CCCO1)c1ccc(-c2noc(C(F)(F)F)n2)cc1` (stereo partly drawn) [Example 150, N-(((3R)-4-(tetrahydrofuran-2-ylcarbonyl)morpholin-3-yl)methyl)-4-(5-(trifluoromethyl)-1,2,4-oxadiazol-3-yl)benzamide], the inhibition at 1 µM was found to be 90%.
